Data published in ChEMBL document CHEMBL5390264, “Exploring Fatty Acid Mimetics as NR4A Ligands” (J Med Chem, 2023).
Values belong to the compound of their own block, whether it stands above or below them. The source made the active and inactive calls. The calls are words filed in the database; no cut-off is given here.

Legend:
[1] = molecular target: T1, Nuclear receptor subfamily 4 group A member 3 (Homo sapiens, UniProt Q92570); assay: Modulation of human NOR-1 LBD transiently transfected in HEK293T cells at 100 to 200 uM incubated for 16 hrs by Gal4-hybrid reporter gene based Dual-glo luciferase assay; type: cell-based; conditions: dose 100-200 µM
T1 sequence (Q92570 whole entry, the tested form may be a part): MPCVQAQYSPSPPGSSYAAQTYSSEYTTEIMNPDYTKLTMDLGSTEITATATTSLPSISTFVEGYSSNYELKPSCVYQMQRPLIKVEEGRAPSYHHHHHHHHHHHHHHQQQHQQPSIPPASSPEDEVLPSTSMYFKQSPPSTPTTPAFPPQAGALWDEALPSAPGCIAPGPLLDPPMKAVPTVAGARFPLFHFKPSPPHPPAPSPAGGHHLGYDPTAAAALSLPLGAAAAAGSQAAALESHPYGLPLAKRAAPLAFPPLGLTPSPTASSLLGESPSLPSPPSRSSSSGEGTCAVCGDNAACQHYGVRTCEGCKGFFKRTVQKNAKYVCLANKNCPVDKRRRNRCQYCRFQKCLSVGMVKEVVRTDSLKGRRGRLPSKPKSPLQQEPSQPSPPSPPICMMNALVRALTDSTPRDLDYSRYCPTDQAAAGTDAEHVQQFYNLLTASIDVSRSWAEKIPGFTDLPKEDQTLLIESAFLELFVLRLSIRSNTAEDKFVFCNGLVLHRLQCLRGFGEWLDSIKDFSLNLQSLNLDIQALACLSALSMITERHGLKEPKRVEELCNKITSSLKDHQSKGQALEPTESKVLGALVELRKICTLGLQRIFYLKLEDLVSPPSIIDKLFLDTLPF

[2] = molecular target: T2, Nuclear receptor subfamily 4immunitygroup A member 1 (Homo sapiens, UniProt P22736); assay: Modulation of human Nur77 LBD transiently transfected in HEK293T cells at 100 to 200 uM incubated for 16 hrs by Gal4-hybrid reporter gene based Dual-glo luciferase assay; type: cell-based; conditions: dose 100-200 µM
T2 sequence (P22736 whole entry, the tested form may be a part): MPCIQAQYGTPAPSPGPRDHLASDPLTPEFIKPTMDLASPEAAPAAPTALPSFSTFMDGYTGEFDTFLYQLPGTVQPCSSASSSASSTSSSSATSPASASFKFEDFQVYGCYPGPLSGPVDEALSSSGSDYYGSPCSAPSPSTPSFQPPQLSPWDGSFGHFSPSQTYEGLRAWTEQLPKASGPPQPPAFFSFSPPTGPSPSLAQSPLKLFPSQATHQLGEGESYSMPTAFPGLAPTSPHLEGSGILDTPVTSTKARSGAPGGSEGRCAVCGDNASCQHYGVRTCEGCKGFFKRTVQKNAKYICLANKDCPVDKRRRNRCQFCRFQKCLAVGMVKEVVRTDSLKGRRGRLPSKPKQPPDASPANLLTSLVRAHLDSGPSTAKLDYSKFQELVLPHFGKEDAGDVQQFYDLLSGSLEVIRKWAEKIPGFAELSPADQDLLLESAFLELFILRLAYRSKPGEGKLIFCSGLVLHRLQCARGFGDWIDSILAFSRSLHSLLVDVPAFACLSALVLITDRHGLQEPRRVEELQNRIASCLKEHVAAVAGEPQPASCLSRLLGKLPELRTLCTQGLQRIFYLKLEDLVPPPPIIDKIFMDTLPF

[3] = molecular target: T1, Nuclear receptor subfamily 4 group A member 3; assay: Agonist activity at human NOR-1 LBD transiently transfected in HEK293T cells incubated for 16 hrs by Gal4-hybrid reporter gene based Dual-glo luciferase assay; type: cell-based
[4] = molecular target: T1, Nuclear receptor subfamily 4 group A member 3; assay: Agonist activity at human NOR-1 LBD transiently transfected in HEK293T cells assessed as maximal activation incubated for 16 hrs by Gal4-hybrid reporter gene based Dual-glo luciferase assay relative to control; type: cell-based; conditions: filed as agonist
[5] = molecular target: T2, Nuclear receptor subfamily 4immunitygroup A member 1; assay: Agonist activity at human Nur77 LBD transiently transfected in HEK293T cells assessed as maximal activation incubated for 16 hrs by Gal4-hybrid reporter gene based Dual-glo luciferase assay relative to control; type: cell-based; conditions: filed as agonist
[6] = molecular target: T2, Nuclear receptor subfamily 4immunitygroup A member 1; assay: Agonist activity at human Nur77 LBD transiently transfected in HEK293T cells incubated for 16 hrs by Gal4-hybrid reporter gene based Dual-glo luciferase assay; type: cell-based
[7] = molecular target: T3, Nuclear receptor subfamily 4 group A member 2 (Homo sapiens, UniProt P43354); assay: Agonist activity at human Nurr1 LBD transiently transfected in HEK293T cells incubated for 16 hrs by Gal4-hybrid reporter gene based Dual-glo luciferase assay; type: cell-based
T3 sequence (P43354 whole entry, the tested form may be a part): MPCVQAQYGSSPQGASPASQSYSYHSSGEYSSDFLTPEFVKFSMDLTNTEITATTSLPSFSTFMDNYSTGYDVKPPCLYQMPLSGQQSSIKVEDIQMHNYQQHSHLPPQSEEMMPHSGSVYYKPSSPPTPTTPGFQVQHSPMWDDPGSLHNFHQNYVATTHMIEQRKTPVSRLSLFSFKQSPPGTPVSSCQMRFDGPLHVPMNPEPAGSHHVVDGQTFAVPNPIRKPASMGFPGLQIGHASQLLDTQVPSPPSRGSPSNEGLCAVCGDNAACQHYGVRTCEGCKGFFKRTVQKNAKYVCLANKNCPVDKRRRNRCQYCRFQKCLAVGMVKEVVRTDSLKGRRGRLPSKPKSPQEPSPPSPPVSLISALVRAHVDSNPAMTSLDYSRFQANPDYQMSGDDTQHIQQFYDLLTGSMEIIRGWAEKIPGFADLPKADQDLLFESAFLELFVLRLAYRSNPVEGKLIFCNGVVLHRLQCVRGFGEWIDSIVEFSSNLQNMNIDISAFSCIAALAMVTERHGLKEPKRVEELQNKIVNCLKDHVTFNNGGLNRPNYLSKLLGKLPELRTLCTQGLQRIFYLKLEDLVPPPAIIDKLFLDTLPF

[8] = molecular target: T2, Nuclear receptor subfamily 4immunitygroup A member 1; assay: Inverse agonist activity at human Nur77 LBD transiently transfected in HEK293T cells incubated for 16 hrs by Gal4-hybrid reporter gene based Dual-glo luciferase assay; type: cell-based
[9] = molecular target: T1, Nuclear receptor subfamily 4 group A member 3; assay: Inverse agonist activity at human NOR-1 LBD transiently transfected in HEK293T cells incubated for 16 hrs by Gal4-hybrid reporter gene based Dual-glo luciferase assay; type: cell-based
[10] = molecular target: T3, Nuclear receptor subfamily 4 group A member 2; assay: Binding affinity to recombinant N-terminal 6His-tagged Nurr1 LBD (362 to 598 residues) (unknown origin) expressed in Escherichia coli BL21(DE3)-R3-pRARE2 cells assessed as thermal stability by measuring change in melting temperature at 100 uM by SYPRO orange dye based differential scanning fluorimetry analysis
[11] = molecular target: T3, Nuclear receptor subfamily 4 group A member 2; assay: Inverse agonist activity at human Nurr1 LBD transiently transfected in HEK293T cells incubated for 16 hrs by Gal4-hybrid reporter gene based Dual-glo luciferase assay; type: cell-based

SMILES: O=C(O)CC(c1ccccc1)c1ccccc1
Activity [1]: inactive

SMILES: O=C(O)CN(CCO)CCO
Activity [2]: inactive

SMILES: O=C(O)c1ccc(Oc2ccccc2)cc1
Activity [2]: inactive

SMILES: O=C(O)c1ccc(OCc2ccc(F)cc2)cc1
EC50 ([7]; read-out: EC50): 12 µM

SMILES: O=C(O)c1cccc(OCc2ccc(Cl)cc2Cl)c1
EC50 [3]: 0.15 µM | EC50 [6]: 0.04 µM

SMILES: O=C(O)c1cccc2ccccc12 [NAPHTHOIC ACID]
EC50 [3]: 56 µM | Emax [4]: 136% | Emax [5]: 183% | EC50 [6]: 48 µM | EC50 ([7]; read-out: EC50): 54 µM

SMILES: CN(C)c1ccc(/N=N/c2ccccc2C(=O)O)cc1
Activity [1]: inactive

SMILES: O=C(O)c1ccnc2ccccc12
Activity [2]: inactive

SMILES: C/C(=C\C(=O)O)c1ccc(C(F)(F)F)cc1
EC50 [3]: 36 µM | Emax [4]: 157% | Emax [5]: 162% | EC50 [6]: 28 µM | EC50 ([7]; read-out: EC50): 76 µM

SMILES: O=C(O)c1ccccc1C(=O)c1ccc(Cl)cc1
IC50 [8]: 99 µM | IC50 [9]: 111 µM | IC50 [11]: > 100 µM

SMILES: O=C(O)c1ccc(OCc2ccccc2Cl)cc1
EC50 ([7]; read-out: EC50): 0.05 µM

SMILES: O=C(O)CCC(=O)c1ccccc1
EC50 [3]: > 100 µM | EC50 [6]: > 100 µM | EC50 ([7]; read-out: EC50): 90 µM

SMILES: O=Cc1ccc(C(=O)O)cc1
Activity [2]: inactive | Activity [1]: inactive

SMILES: COc1cc(C(=O)O)cc(OC)c1OC
Activity [2]: inactive

Continued, values first:

Activity [1]: inactive
SMILES: O=C(O)/C=C/c1ccc(Cl)c(Cl)c1

EC50 [3]: 6 µM | Emax [4]: 148% | Emax [5]: 158% | EC50 [6]: 9 µM | EC50 ([7]; read-out: EC50): 6 µM
SMILES: O=C(O)c1ccc(-c2cccc(F)c2)o1

IC50 [8]: > 100 µM | IC50 [9]: > 100 µM
SMILES: N#Cc1c(F)c(F)cc(C(=O)O)c1F

EC50 ([7]; read-out: EC50): 6 µM
SMILES: O=C(O)c1ccc(OCc2ccc(Cl)cc2)cc1

EC50 ([7]; read-out: EC50): 3 µM
SMILES: O=C(O)c1cccc(OCc2ccccc2Cl)c1

ΔTm [10]: -0.94 °C
SMILES: COc1cccc(-c2ccc(NC(=O)C3=C(C(=O)O)CCC3)c(F)c2)c1

EC50 ([7]; read-out: EC50): 19 µM
SMILES: O=C(O)c1cccc(OCc2ccc(F)cc2)c1

Activity [2]: inactive
SMILES: COc1ccccc1CC(=O)O

IC50 [8]: > 100 µM | IC50 [9]: > 100 µM
SMILES: O=C(O)C(c1ccccc1)(c1ccccc1)c1ccccc1

EC50 ([7]; read-out: EC50): 3 µM
SMILES: O=C(O)c1cccc(OCc2cccc(F)c2)c1

IC50 [8]: > 100 µM | IC50 [9]: > 100 µM
SMILES: O=C(O)c1ccccc1CCc1ccccc1

EC50 ([7]; read-out: EC50): 8 µM
SMILES: O=C(O)c1cccc(OCc2ccccc2)c1

EC50 [3]: 73 µM | EC50 [6]: > 100 µM
SMILES: CCc1c(C(=O)O)cnn1-c1ccccc1

IC50 [8]: 9 µM | IC50 [9]: > 100 µM | IC50 [11]: 37 µM
SMILES: CSc1nccn1-c1ccc(C(=O)O)cc1

Activity [2]: inactive
SMILES: Cn1nnc2c(C(=O)O)ncn2c1=O

EC50 ([7]; hek293t): Not Determined(Insoluble)
SMILES: O=C(O)c1ccc(OCc2cccc(-c3ccccc3)c2)cc1

Activity [2]: inactive
SMILES: CCC(Oc1cc(Cl)cc(Cl)c1)C(=O)O (stereo unspecified)

EC50 [3]: 13 µM | Emax [4]: 166% | Emax [5]: 158% | EC50 [6]: 8 µM | EC50 ([7]; read-out: EC50): 9 µM
SMILES: O=C(O)c1ccc(OCc2ccccc2)cc1

EC50 ([7]; read-out: EC50): 18 µM
SMILES: O=C(O)c1ccc(OCc2cccc(C(F)(F)F)c2)cc1
